Source: patent publication US20060263427A1, “Quinine formulations” (priority 2005, published 2006)
Counter-ions that a name gives are not always drawn. Like-named read-outs stand apart in the source and are kept apart here.

Columns and labels:
[1] = in vivo
[2] = 324 mg, 1 capsule, fasted
[3] = Mean plasma quinine concentration over 24 hours after single oral dose of Quinine Sulfate (Example 6, Studies 1 and 2); format: in vivo, human; conditions: for concentration at 0 h / concentration at 2 h / concentration at 4 h / concentration at 6 h / concentration at 12 h / concentration at 24 h: both sexes, human, plasma, oral
[4] = QTc interval measurements (ECG) over 24 hours after single oral dose of Quinine Sulfate (Example 6, Studies 1 and 2); format: in vivo, human
[5] = fasted, non-transformed data, least squares mean
clinical [6] = conditions: human, in vivo
clinical [7] = conditions: human, plasma, oral
[8] = non-transformed data, least squares mean
[9] = 324 mg, Study 1, B: 324 mg capsule, fed
[10] = 324 mg, Study 2, C: 324 mg capsule, fasting
[11] = 648 mg, Study 2, D: 648 mg (two capsules), fasting

- AUC0-INF ([1]; human, 648 mg): 61817.27 ng·h/mL
- AUC0-t ([1]; human, 648 mg): 56394.65 ng·h/mL
- Cmax ([1]; human, 648 mg): 3174.89 ng/mL
- dose proportionality of AUCT and AUCinf [1]: proportional increase
- dose proportionality of Cmax [1]: nonlinear dose proportionality
- Cmax ([2]; Ln-transformed data, geometric mean): 2242.70 ng/mL
- AUC0-INF [2, 8]: 33280.89 ng·h/mL
- AUC0-t [2, 8]: 31298.12 ng·h/mL
- Mean Plasma Concentration ([3]; Study 2, C: 324 mg capsule, fasting, 0 hours): 0; ng/ml
- concentration at 0 h ([3]; 324 mg, Study 1, B: 324 mg capsule, fed, 0 hours): 0 ng/mL
- concentration at 2 h [3, 9]: 835 ng/mL
- concentration at 4 h [3, 9]: 2260 ng/mL
- concentration at 6 h [3, 9]: 2010 ng/mL
- concentration at 12 h [3, 9]: 1220 ng/mL
- concentration at 24 h [3, 9]: 543 ng/mL
- concentration at 2 h [3, 10]: 1860 ng/mL
- concentration at 4 h [3, 10]: 1880 ng/mL
- concentration at 6 h [3, 10]: 1710 ng/mL
- concentration at 12 h [3, 10]: 994 ng/mL
- concentration at 24 h [3, 10]: 475 ng/mL
- concentration at 0 h ([3]; 648 mg, Study 2, D: 648 mg (two capsules), fasting, 0 hours): 0 ng/mL
- concentration at 2 h [3, 11]: 2810 ng/mL
- concentration at 4 h [3, 11]: 2950 ng/mL
- concentration at 6 h [3, 11]: 2720 ng/mL
- concentration at 12 h [3, 11]: 1700 ng/mL
- concentration at 24 h [3, 11]: 912 ng/mL
- kelim ([5]; 324 mg, 1 capsule): 0.0592
- kelim ([5]; 648 mg, 2 capsules): 0.0572
- Tmax (clinical [6]; 324 mg): 2.78 h
- Tmax (clinical [6]; 648 mg): 2.8 h
- AUC(0-inf) (clinical [6]; 648 mg, AUC0-INF): 59200 ng·h/mL
- AUC0-t (clinical [6]; 648 mg, AUC0-t): 54400 ng·h/mL
- Cmax (clinical [6]; 648 mg, Cmax): 3240 ng/mL
- Tmax (clinical [7]; 260 mg): 2.61 h
- AUC0-t (clinical [7]; 324 mg): 30300 ng·h/mL
- AUC(0-inf) (clinical [7]; 324 mg): 32100 ng·h/mL
- Cmax (clinical [7]; 324 mg): 2280 ng/mL
- Tmax (clinical [7]; 324 mg): 2.75 h
Structure (SMILES): C=C[C@H]1C[N@@]2CC[C@H]1C[C@H]2[C@H](O)c1ccnc2ccc(OC)cc12 [Quinine Sulfate, cinchonan-9-ol, 6′-methoxy-, (8α,9R)-, sulfate (2:1)]
- subjects with significant prolongations in QTc interval (>450 msec) ([4]; 50 subjects, single oral doses 324 mg or 648 mg): seven
- relation of mean QTc value to plasma concentration ([4]; single oral doses, Table 1): an increase in the mean QTc value was found to correspond with the peak quinine plasma concentration
